# Molecular target: T1, PIP4K2C (Homo sapiens, UniProt Q8TBX8)
# T1 sequence (Q8TBX8 1-421): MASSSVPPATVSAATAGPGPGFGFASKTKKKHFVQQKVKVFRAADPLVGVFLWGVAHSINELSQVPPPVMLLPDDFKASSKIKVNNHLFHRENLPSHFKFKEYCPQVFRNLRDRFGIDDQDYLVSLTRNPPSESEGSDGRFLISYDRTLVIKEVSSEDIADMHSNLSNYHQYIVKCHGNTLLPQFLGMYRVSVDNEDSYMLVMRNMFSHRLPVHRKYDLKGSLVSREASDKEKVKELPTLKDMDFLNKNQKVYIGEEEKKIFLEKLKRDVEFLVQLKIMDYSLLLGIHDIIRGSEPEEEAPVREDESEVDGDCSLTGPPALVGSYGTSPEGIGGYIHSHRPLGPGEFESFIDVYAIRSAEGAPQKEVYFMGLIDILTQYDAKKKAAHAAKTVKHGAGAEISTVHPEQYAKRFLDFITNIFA
# Assay: HiBiT PIP4K2C degradation assay in MOLT-4 cells (endogenous PIP4K2C C-terminally tagged with HiBiT)
# Assay type: cell-based
# Design: untagged in primary human PBMCs and monocyte-derived dendritic cells
# Conditions: 6 hours of incubation time, rather than 24 hours; MOLT-4, top concentration 10 micromolar; read-out: HiBIT-degradation MOLT4 PIP4k2C DC50 (6 hours, marked *)
# Outline: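 Endogenous PIP4K2C was C-terminally HiBiT-tagged by CRISPR-Cas9 in MOLT-4 cells, which were treated with a 10-point, 3-fold dilution series from 10 micromolar in duplicate for 24 or 6 hours at 37 C. Remaining protein was read by HiBiT lytic luminescence, and DC50 came from a Hill fit.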
row,DC50 [nM],SMILES
1,< 500,"O=C1CCC(Nc2ccc(N3CCN([C@H]4CC[C@H](NC(=O)[C@H]5CC[C@H](Nc6ncc(F)c(-c7cccc(-n8ccccc8=O)c7)n6)CC5)CC4)CC3)c(F)c2)C(=O)N1 (stereo partly drawn) [Compound 381, trans-(1r,4R)—N-((1r,4R)-4-(4-(4-((2,6-dioxopiperidin-3-yl)amino)-2-fluorophenyl)piperazin-1-yl)cyclohexyl)-4-((5-fluoro-4-(3-(2-oxopyridin-1(2H)-yl)phenyl)pyrimidin-2-yl)amino)cyclohexane-1-carboxamide]"

# Same assay, conditions: 24 hours incubation, MOLT-4, top concentration 10 micromolar; read-out: HiBIT-degradation MOLT4 PIP4k2C 24 hours DC50
row,DC50 [nM],SMILES
1,< 500,"O=C1CCC(Nc2ccc(C3CCN(CC4CCN(CC(=O)N5CCC(Nc6ncc(F)c(-c7cccc(-c8ccc[nH]c8=O)c7)n6)CC5)CC4)CC3)c(F)c2)C(=O)N1 (centres unmarked) [Compound 364, 3-((3-fluoro-4-(1-((1-(2-(4-((5-fluoro-4-(3-(2-oxo-1,2-dihydropyridin-3-yl)phenyl)pyrimidin-2-yl)amino)piperidin-1-yl)-2-oxoethyl)piperidin-4-yl)methyl)piperidin-4-yl)phenyl)amino)piperidine-2,6-dione]"
2,< 500,"O=C1CCC(Nc2ccc(C3CCN(CC4CCN(CC(=O)N[C@H]5CC[C@H](Nc6ncc(F)c(-c7cccc(-c8ccc[nH]c8=O)c7)n6)CC5)CC4)CC3)c(F)c2)C(=O)N1 (stereo partly drawn) [Compound 365, trans-2-(4-((4-(4-((2,6-dioxopiperidin-3-yl)amino)-2-fluorophenyl)piperidin-1-yl)methyl)piperidin-1-yl)-N-(4-((5-fluoro-4-(3-(2-oxo-1,2-dihydropyridin-3-yl)phenyl)pyrimidin-2-yl)amino)cyclohexyl)acetamide]"
3,< 500,"O=C1CCC(n2c(=O)oc3cc(C4CCN(CC5CCN(C(=O)CN6CCC(Nc7ncc(F)c(-c8cccc(-c9ccccc9)c8)n7)CC6=O)CC5)CC4)ccc32)C(=O)N1 (centres unmarked) [Compound 366, 3-(6-(1-((1-(2-(4-((4-([1,1′-biphenyl]-3-yl)-5-fluoropyrimidin-2-yl)amino)-2-oxopiperidin-1-yl)acetyl)piperidin-4-yl)methyl)piperidin-4-yl)-2-oxobenzo[d]oxazol-3 (2H)-yl)piperidine-2,6-dione]"
4,< 500,"O=C1CCC(n2c(=O)oc3cc(C4CCN(CC5CCN(C(=O)CN6CCC(Nc7ncc(F)c(-c8cccc(-n9ccccc9=O)c8)n7)CC6=O)CC5)CC4)ccc32)C(=O)N1 (centres unmarked) [Compound 367, 3-(6-(1-((1-(2-(4-((5-fluoro-4-(3-(2-oxopyridin-1(2H)-yl)phenyl)pyrimidin-2-yl)amino)-2-oxopiperidin-1-yl)acetyl)piperidin-4-yl)methyl)piperidin-4-yl)-2-oxobenzo[d]oxazol-3 (2H)-yl)piperidine-2,6-dione]"
5,< 500,"O=C1CCC(n2c(=O)oc3cc(C4CCN(CCC5CCN(C(=O)[C@H]6CC[C@H](Nc7ncc(F)c(-c8cccc(-c9ccc[nH]c9=O)c8)n7)CC6)CC5)CC4)ccc32)C(=O)N1 (stereo partly drawn) [Compound 368, 3-(6-(1-(2-(1-(trans-4-((5-fluoro-4-(3-(2-oxo-1,2-dihydropyridin-3-yl)phenyl)pyrimidin-2-yl)amino)cyclohexane-1-carbonyl)piperidin-4-yl)ethyl)piperidin-4-yl)-2-oxobenzo[d]oxazol-3 (2H)-yl)piperidine-2,6-dione]"
6,< 500,"O=C1CCC(n2c(=O)oc3cc(C4CCN(CC5CCN(CC(=O)N[C@H]6CC[C@H](Nc7ncc(Cl)c(-c8cccc(-n9ccccc9=O)c8)n7)CC6)CC5)CC4)ccc32)C(=O)N1 (stereo partly drawn) [Compound 369, trans-N-(4-((5-chloro-4-(3-(2-oxopyridin-1(2H)-yl)phenyl)pyrimidin-2-yl)amino)cyclohexyl)-2-(4-((4-(3-(2,6-dioxopiperidin-3-yl)-2-oxo-2,3-dihydrobenzo[d]oxazol-6-yl)piperidin-1-yl)methyl)piperidin-1-yl)acetamide]"
7,< 500,"CC(C(=O)N1CCC(Nc2ncc(F)c(-c3cccc(-n4ccccc4=O)c3)n2)CC1)N1CCC(CN2CCC(c3ccc4c(c3)oc(=O)n4C3CCC(=O)NC3=O)CC2)CC1 (centres unmarked) [Compound 370, 3-(6-(1-((1-(1-(4-((5-fluoro-4-(3-(2-oxopyridin-1(2H)-yl)phenyl)pyrimidin-2-yl)amino)piperidin-1-yl)-1-oxopropan-2-yl)piperidin-4-yl)methyl)piperidin-4-yl)-2-oxobenzo[d]oxazol-3 (2H)-yl)piperidine-2,6-dione]"
8,< 500,"O=C1CCC(n2c(=O)oc3cc(C4CCN(CC5CCN(CC(=O)N6CCC(Nc7ncc(F)c(-c8cccc(N9CCCOC9=O)c8)n7)CC6)CC5)CC4)ccc32)C(=O)N1 (centres unmarked) [Compound 371, 3-(6-(1-((1-(2-(4-((5-fluoro-4-(3-(2-oxo-1,3-oxazinan-3-yl)phenyl)pyrimidin-2-yl)amino)piperidin-1-yl)-2-oxoethyl)piperidin-4-yl)methyl)piperidin-4-yl)-2-oxobenzo[d]oxazol-3 (2H)-yl)piperidine-2,6-dione]"
9,< 500,"O=C1CCC(n2c(=O)oc3cc(C4CCN(CC5CCN(CC(=O)N6CCC(Nc7ncc(F)c(-c8cccc(N9CCOC9=O)c8)n7)CC6)CC5)CC4)ccc32)C(=O)N1 (centres unmarked) [Compound 372, 3-(6-(1-((1-(2-(4-((5-fluoro-4-(3-(2-oxooxazolidin-3-yl)phenyl)pyrimidin-2-yl)amino)piperidin-1-yl)-2-oxoethyl)piperidin-4-yl)methyl)piperidin-4-yl)-2-oxobenzo[d]oxazol-3 (2H)-yl)piperidine-2,6-dione]"
10,> 5000,"O=C1CCC(n2c(=O)oc3cc(C4CCN(CC5CCN(CC(=O)N6CCC(Nc7ncc(Cl)c(-c8cccc(-n9ccccc9=O)c8)n7)CC6)CC5)CC4)ccc32)C(=O)N1 (centres unmarked) [Compound 373, 3-(6-(1-((1-(2-(4-((5-chloro-4-(3-(2-oxopyridin-1(2H)-yl)phenyl)pyrimidin-2-yl)amino)piperidin-1-yl)-2-oxoethyl)piperidin-4-yl)methyl)piperidin-4-yl)-2-oxobenzo[d]oxazol-3 (2H)-yl)piperidine-2,6-dione]"
11,< 500,"O=C1CCC(Nc2ccc(N3CCN(CC4CCN(C(=O)[C@H]5CC[C@H](Nc6ncc(F)c(-c7cccc(-n8ccccc8=O)c7)n6)CC5)CC4)CC3)c(F)c2)C(=O)N1 (stereo partly drawn) [Compound 374, trans-3-((3-fluoro-4-(4-((1-(4-((5-fluoro-4-(3-(2-oxopyridin-1(2H)-yl)phenyl)pyrimidin-2-yl)amino)cyclohexane-1-carbonyl)piperidin-4-yl)methyl)piperazin-1-yl)phenyl)amino)piperidine-2,6-dione]"
12,< 500,"O=C1CCC(Nc2ccc(N3CCN(CC4CCN(C(=O)[C@H]5CC[C@H](Nc6ncc(F)c(-c7cccc(-c8ccc[nH]c8=O)c7)n6)CC5)CC4)CC3)c(F)c2)C(=O)N1 (stereo partly drawn) [Compound 376, trans-3-((3-fluoro-4-(4-((1-(4-((5-fluoro-4-(3-(2-oxo-1,2-dihydropyridin-3-yl)phenyl)pyrimidin-2-yl)amino)cyclohexane-1-carbonyl)piperidin-4-yl)methyl)piperazin-1-yl)phenyl)amino)piperidine-2,6-dione]"
13,< 500,"O=C1CCC(Nc2ccc(N3CCC(N4CC5(CC(OC(=O)N[C@H]6CC[C@H](Nc7ncc(F)c(-c8cccc(-n9ccccc9=O)c8)n7)CC6)C5)C4)CC3)c(F)c2)C(=O)N1 (stereo partly drawn) [Compound 377, trans-2-(1-(4-((2,6-dioxopiperidin-3-yl)amino)-2-fluorophenyl)piperidin-4-yl)-2-azaspiro[3.3]heptan-6-yl (4-((5-fluoro-4-(3-(2-oxopyridin-1(2H)-yl)phenyl)pyrimidin-2-yl)amino)cyclohexyl)carbamate]"
14,< 500,"O=C1CCC(n2c(=O)oc3cc(N4CCC(CN5CCN(CC(=O)N6CCC(Nc7ncc(F)c(-c8cccc(-n9ccccc9=O)c8)n7)CC6)CC5)CC4)ccc32)C(=O)N1 (centres unmarked) [Compound 378, 3-(6-(4-((4-(2-(4-((5-fluoro-4-(3-(2-oxopyridin-1(2H)-yl)phenyl)pyrimidin-2-yl)amino)piperidin-1-yl)-2-oxoethyl)piperazin-1-yl)methyl)piperidin-1-yl)-2-oxobenzo[d]oxazol-3 (2H)-yl)piperidine-2,6-dione]"
15,< 500,"O=C1CCC(n2c(=O)oc3cc(C4CCN(CC5CCN(CC(=O)N6CCC(Nc7ncc(F)c(-c8cccc(-c9ccc[nH]c9=O)c8)n7)CC6)CC5)CC4)ccc32)C(=O)N1 (centres unmarked) [Compound 379, 3-[6-[1-[[1-[2-[4-[[5-fluoro-4-[3-(2-oxo-1H-pyridin-3-yl)phenyl]pyrimidin-2-yl]amino]-1-piperidyl]-2-oxo-ethyl]-4-piperidyl]methyl]-4-piperidyl]-2-oxo-1,3-benzoxazol-3-yl]piperidine-2,6-dione]"
16,< 500,"O=C1CCC(n2c(=O)oc3cc(N4CCC(CN5CCC(O)(CC(=O)N6CCC(Nc7ncc(F)c(-c8cccc(-n9ccccc9=O)c8)n7)CC6)CC5)CC4)ccc32)C(=O)N1 (centres unmarked) [Compound 380, 3-(6-(4-((4-(2-(4-((5-fluoro-4-(3-(2-oxopyridin-1(2H)-yl)phenyl)pyrimidin-2-yl)amino)piperidin-1-yl)-2-oxoethyl)-4-hydroxypiperidin-1-yl)methyl)piperidin-1-yl)-2-oxobenzo[d]oxazol-3 (2H)-yl)piperidine-2,6-dione]"
